Experimental data taken from EP4714939A1, “SULFONAMIDE COMPOUND, PREPARATION METHOD THEREFOR, AND PHARMACEUTICAL USE THEREOF” (Shenzhen Salubris Pharmaceuticals Co., Ltd., priority 2023, dated 2024).

Test system: Lp(a)
Test: In-vitro Lp(a) assembly assay (cell-free, sandwich ELISA)
Format: biochemical
Conditions: inhibition of Lp(a) formation; HepG2 and HEK293 (human Apo(a), 17 Kringle repeats) conditioned media, 37°C, 2 hours; 4-parameter curve
Experimental: The capability of the compounds in the examples inhibiting the formation of Lp(a) particles in vitro was evaluated through cell-free assembly assay. After incubation at 37°C with 5% CO2 for 96 h, conditioned media (supplemented with 10% FBS, 20 mM HEPES, and 1 × penicillin/streptomycin DMEM) was collected from confluent wild-type HepG2 cells (source of endogenously expressed ApoB) and an HEK293 stable cell line expressing human Apo(a) protein containing 17 Kringle repeats (selected on 1 ug/ml puromycin). In-vitro assembly assay was performed by combining equal parts of HepG2 and HEK293 conditioned media with compounds under test added in a dilution series (final concentration being 0.03-1000 nM). A reaction was incubated at 37°C for 2 hours, and terminated by adding 6-aminocaproic acid (EACA) to a final concentration of 150 mM. Sandwich ELISA was used to detect Lp(a) using an anti-Apo(a) capture antibody (ab242565) and an HRP-conjugated anti-ApoB detection antibody (ab27622). ELISA was performed using TMB staining, and terminated with 1N sulfuric acid, and signals were read at 450 nm on an Envision 2104 plate reader. By setting an assembly reaction without inhibitors to 0% inhibition and an assembly reaction with the minimum amount of HepG2 conditioned medium (50-fold dilution) to 100% inhibition, the % inhibition of Lp(a) formed under each test condition was determined. Table 1 IC90 values of sulfonamide compounds

Structure (SMILES)	IC90
O=C(O)[C@@H](Cc1cccc(CN(Cc2ccc(Cl)c(C[C@H](C(=O)O)[C@H]3CCNC3)c2)S(=O)(=O)c2ccc(F)c(C[C@H](C(=O)O)[C@H]3CCNC3)c2)c1)[C@H]1CCNC1 [Compound 39, (S)-3-(5-(N-(3-((S)-2-carboxyl-2-((R)-pyrrolid-3-yl)ethyl)-4-chlorobenzyl)-N-(3-((S)-2-carboxyl-2-((R)-pyrrolid-3-yl)ethyl)benzyl)aminosulfonyl)-2-fluorophenyl)-2-((R)-pyrrolid-3-yl)propanoic acid]	24.9 nM
O=C(O)C(Cc1cccc(CN(Cc2ccccc2CC(C(=O)O)C2CCNC2)S(=O)(=O)c2cccc(CC(C(=O)O)C3CCNC3)c2)c1)C1CCNC1 [Compound 23, (S)-3-(3-(((3-(S)-2-carboxyl-2-((R)-pyrrolid-3-yl)ethyl)-N-(2-((S)2-carboxyl-2-(R)pyrrolid-3-yl)ethyl)benzyl)phenyl)sulfonamido)methyl)phenyl)-2-((R)-pyrrolid-3-yl)propanoic acid]	76.2 nM
O=C(O)[C@@H](Cc1cccc(S(=O)(=O)N(CCc2ccccc2C[C@H](C(=O)O)[C@H]2CCNC2)Cc2cc(C[C@H](C(=O)O)[C@H]3CCNC3)c(F)cc2F)c1)[C@H]1CCNC1 [Compound 27]	79.6 nM
O=C(O)C(Cc1cc(S(=O)(=O)N(Cc2ccc(Cl)c(CC(C(=O)O)C3CCNC3)c2)Cc2ccc(Cl)c(CC(C(=O)O)C3CCNC3)c2)ccc1F)C1CCNC1 [Compound 42, (2S,2'S)-3,3'(3-((S)-2-carboxyl-2-(R)-pyrrolid-3-yl)ethyl)-4-fluorophenylsu lfonyl)azadiyl)dimethylenyl)bis(6-chloro-3,1-phenylenyl)bis(2-(R)-pyrrolid-3-yl)propanoic acid)]	25.1 nM
O=C(O)C(Cc1cccc(S(=O)(=O)N(Cc2c(F)ccc(CC(C(=O)O)C3CCNC3)c2F)Cc2c(F)ccc(CC(C(=O)O)C3CCNC3)c2F)c1)C1CCNC1 [Compound 31, (2S,2'S)-3,3'-((3-((S)-2-carboxyl-2-(R)-pyrrolid-3-yl)ethyl)phenyl)sulfonyl)azadiyl)bis(methylenyl))bis(2,6-difluoro-3,1-phenylenyl)bis(2-(R)-pyrrolid-3-yl)propanoic acid)]	21.1 nM
O=C(O)[C@@H](Cc1cc(F)cc(CCN(Cc2cccc(C[C@H](C(=O)O)[C@H]3CCNC3)c2)S(=O)(=O)c2cccc(C[C@H](C(=O)O)[C@H]3CCNC3)c2)c1)[C@H]1CCNC1 [Compound 28]	86.5 nM
O=C(O)C(Cc1cccc(S(=O)(=O)N(Cc2ccc(Cl)c(CC(C(=O)O)C3CCNC3)c2)Cc2ccc(Cl)c(CC(C(=O)O)C3CCNC3)c2)c1)C1CCNC1 [Compound 41, (2S,2'S)-3,3'-(3-((S)-2-carboxyl-2-((R)-pyrrolid-3-yl)ethyl)phenyl)sulfonyl)azadiyl)dimethylenyl)bis(6-chloro-3,1-phenylenyl)bis(2-(R)-pyrrolid-3-yl)propanoic acid)]	38.1 nM
O=C(O)[C@@H](Cc1cccc(CN(Cc2cc(C[C@H](C(=O)O)[C@H]3CCNC3)c(F)cc2F)S(=O)(=O)c2cccc(C[C@H](C(=O)O)[C@H]3CCNC3)c2)c1)[C@H]1CCNC1 [Compound 15]	16 nM
O=C(O)[C@@H](Cc1cccc(S(=O)(=O)N(Cc2cc(C[C@H](C(=O)O)[C@H]3CCNC3)c(F)cc2F)Cc2cc(C[C@H](C(=O)O)[C@H]3CCNC3)c(F)cc2F)c1)[C@H]1CCNC1 [Compound 16]	23.8 nM
O=C(O)C(Cc1cccc(S(=O)(=O)N(Cc2ccc(Cl)c(CC(C(=O)O)C3CCNC3)c2)Cc2ccc(Cl)c(CC(C(=O)O)C3CCNC3)c2)c1)C1CCNC1 [Compound 40, (2S,2'S)-3,3'-(3-((S)-2-carboxyl-2-((R)-pyrrolid-3-yl)ethyl)phenyl)sulfonyl)azadiyl)dimethylenyl)bis(6-chloro-3,1-phenylenyl)bis(2-(R)-pyrrolid-3-yl)propanoic acid)]	15.7 nM
O=C(O)[C@@H](Cc1cccc(CCN(Cc2cccc(C[C@H](C(=O)O)[C@H]3CCNC3)c2)S(=O)(=O)c2cccc(C[C@H](C(=O)O)[C@H]3CCNC3)c2)c1)[C@H]1CCNC1 [Compound 20]	30.7 nM
O=C(O)[C@@H](Cc1cccc(S(=O)(=O)N(CCc2ccccc2C[C@H](C(=O)O)[C@H]2CCNC2)Cc2cccc(C[C@H](C(=O)O)[C@H]3CCNC3)c2F)c1)[C@H]1CCNC1 [Compound 25, (S)-3-(3-(N-(3-((S)-2-carboxyl-2-((R)-pyrrolid-3-yl)etyhl)-2-fluorobenzyl) -N-(2-(S)2-carboxyl-2-((R)-pyrrolid-3-yl)ethyl)phenethyl)aminosulfonyl)phenyl)-2-(((R)-pyrrolid-3-yl)propanoic acid]	81.7 nM
O=C(O)[C@@H](Cc1cccc(S(=O)(=O)N(CCc2ccccc2C[C@H](C(=O)O)[C@H]2CCNC2)Cc2ccc(F)c(C[C@H](C(=O)O)[C@H]3CCNC3)c2)c1)[C@H]1CCNC1 [Compound 24]	25.8 nM
O=C(O)[C@@H](Cc1cccc(CCN(Cc2ccc(Cl)c(C[C@H](C(=O)O)[C@H]3CCNC3)c2)S(=O)(=O)c2cccc(C[C@H](C(=O)O)[C@H]3CCNC3)c2)c1)[C@H]1CCNC1 [Compound 38]	81.8 nM
O=C(O)[C@@H](Cc1cccc(S(=O)(=O)N(Cc2ccc(F)c(C[C@H](C(=O)O)[C@H]3CCNC3)c2)Cc2cc(C[C@H](C(=O)O)[C@H]3CCNC3)ccc2F)c1)[C@H]1CCNC1 [Compound 14]	24.4 nM
O=C(O)C(Cc1cccc(CCN(CCc2cccc(CC(C(=O)O)C3CCNC3)c2)S(=O)(=O)c2cccc(CC(C(=O)O)C3CCNC3)c2)c1)C1CCNC1 [Compound 21, (2S,2'S)-3,3'(3-((S)-2-carboxyl-2-((R)-pyrrolid-3-yl)ethyl)phenyl)sulfonyl)azadiyl)bis(ethane-2,1-diyl))bis(3,1-phenylenyl)bis(2-(R)-pyrrolid-3-yl)propanoic acid)]	33.9 nM
O=C(O)C(Cc1cccc(CN(Cc2cccc(CC(C(=O)O)C3CCNC3)c2)S(=O)(=O)c2cc(CC(C(=O)O)C3CCNC3)ccc2F)c1)C1CCNC1 [Compound 29, (2S,2'S)-3,3'(5-((S)-2-carboxyl-2-(R)-pyrrolid-3-yl)ethyl)-2-fluorophenyl sulfonyl)azadiyl)dimethylenyl)bis(3,1-phenylenyl)bis(2-(R)-pyrrolid-3-yl)propanoic acid)]	24.9 nM
O=C(O)[C@@H](Cc1cc(CN(Cc2ccc(F)c(C[C@H](C(=O)O)[C@H]3CCNC3)c2)S(=O)(=O)c2ccc(Cl)c(C[C@H](C(=O)O)[C@H]3CCNC3)c2)ccc1F)[C@H]1CCNC1 [Compound 36, (2S,2'S)-3,3'-(((((3-((S)-2-carboxyl-2-((R)-pyrrolid-3-yl)ethyl)-4-chlorophenyl)sulfonyl)azadiyl)bis(methylenyl))bis(6-fluoro-3,1-phenylenyl))bis(2-((R)-pyrrolid-3-yl)propanoic acid)]	21.6 nM
O=C(O)C(Cc1cccc(CN(Cc2cccc(CC(C(=O)O)C3CCNC3)c2)S(=O)(=O)c2ccc(Cl)c(CC(C(=O)O)C3CCNC3)c2)c1)C1CCNC1 [Compound 35, (2S,2'S)-3,3'-(((((3-((S)-2-carboxyl-2-((R)-pyrrolid-3-yl)ethyl)-4-chlorophenyl)sulfonyl)azadiyl)bis(methylenyl))bis(3,1-phenylenyl))bis(2-((R)-pyrrolid-3-yl)propanoic acid)]	41.3 nM
O=C(O)[C@@H](Cc1cccc(CCN(CCc2ccccc2C[C@H](C(=O)O)[C@H]2CCNC2)S(=O)(=O)c2cccc(C[C@H](C(=O)O)[C@H]3CCNC3)c2)c1)[C@H]1CCNC1 [Compound 19]	40.9 nM
O=C(O)C(Cc1cccc(CN(Cc2cccc(CC(C(=O)O)C3CCNC3)c2)S(=O)(=O)c2cc(F)cc(CC(C(=O)O)C3CCNC3)c2)c1)C1CCNC1 [Compound 7, (2S,2'S)-3,3'(3-((S)-2-carboxyl-2-(R)-pyrrolid-3-yl)ethyl)-5-fluorophenyl sulfonyl)azadiyl)dimethylenyl)bis(3,1-phenylenyl)bis(2-(R)-pyrrolid-3-yl)propanoic acid)]	69.9 nM
O=C(O)[C@@H](Cc1cccc(CN(Cc2cccc(C[C@H](C(=O)O)[C@H]3CCNC3)c2)S(=O)(=O)c2ccc(F)c(C[C@H](C(=O)O)[C@H]3CCNC3)c2)c1)[C@H]1CCNC1 [Compound 6]	47.8 nM
O=C(O)[C@@H](Cc1cccc(CN(Cc2cc(C[C@H](C(=O)O)[C@H]3CCNC3)ccc2F)S(=O)(=O)c2cccc(C[C@H](C(=O)O)[C@H]3CCNC3)c2)c1)[C@H]1CCNC1 [Compound 4]	40.3 nM
O=C(O)[C@@H](Cc1cccc(CN(Cc2ccc(F)c(C[C@H](C(=O)O)[C@H]3CCNC3)c2F)S(=O)(=O)c2cccc(C[C@H](C(=O)O)[C@H]3CCNC3)c2)c1)[C@H]1CCNC1 [Compound 30]	29 nM
O=C(O)[C@@H](Cc1cccc(CN(Cc2ccc(F)c(C[C@H](C(=O)O)[C@H]3CCNC3)c2)S(=O)(=O)c2cccc(C[C@H](C(=O)O)[C@H]3CCNC3)c2)c1)[C@H]1CCNC1 [Compound 2]	62.6 nM
O=C(O)[C@@H](Cc1cccc(CN(Cc2ccc(Cl)c(C[C@H](C(=O)O)[C@H]3CCNC3)c2)S(=O)(=O)c2cccc(C[C@H](C(=O)O)[C@H]3CCNC3)c2)c1)[C@H]1CCNC1 [Compound 10]	52.3 nM
O=C(O)C(Cc1cccc(CN(Cc2cccc(CC(C(=O)O)C3CCNC3)c2)S(=O)(=O)c2cccc(CC(C(=O)O)C3CCNC3)c2F)c1)C1CCNC1 [Compound 8, (2S,2'S)-3,3'(3-(S)-2-carboxyl-2-(R)-pyrrolid-3-yl)ethyl)-2-fluorophenyl sulfonyl)azadiyl)dimethylenyl)bis(3,1-phenylenyl)bis(2-(R)-pyrrolid-3-yl)propanoic acid)]	26.1 nM
